Among the data in patent publication US11826351B2, “Compounds useful as kinase inhibitors” (Loxo Oncology, Inc., priority 2015, dated 2023) are IC50 values, retold here.

Where two headings read alike, the source gives them in different places.

Experiment [1] deals with OCI-Ly10 human DLBCL cells. Description: OCI-Ly10 anti-proliferative activity (Resazurin). As to conditions: Homo sapiens, OCI-Ly10, 72 h, read-out: Proliferation Assay OCI-Ly10-20% FBS. Type of experiment: cell-based. The essentials:
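OCI-Ly10 human DLBCL cells, whose growth depends on NFκB signalling, were seeded at 7.5×10^3 cells per well in 96-well plates with a range of compound concentrations and kept at 37° C for 72 h. Resazurin was then added, and after 5 h fluorescence was read at 590 nm.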
Background: The colour change of resazurin is a common sign of viable cells or microbes.

A further experiment deals with T1, Recombinant EGFR (Homo sapiens, UniProt P00533).
T1 construct: purchased Invitrogen
T1 sequence (P00533 25-1210): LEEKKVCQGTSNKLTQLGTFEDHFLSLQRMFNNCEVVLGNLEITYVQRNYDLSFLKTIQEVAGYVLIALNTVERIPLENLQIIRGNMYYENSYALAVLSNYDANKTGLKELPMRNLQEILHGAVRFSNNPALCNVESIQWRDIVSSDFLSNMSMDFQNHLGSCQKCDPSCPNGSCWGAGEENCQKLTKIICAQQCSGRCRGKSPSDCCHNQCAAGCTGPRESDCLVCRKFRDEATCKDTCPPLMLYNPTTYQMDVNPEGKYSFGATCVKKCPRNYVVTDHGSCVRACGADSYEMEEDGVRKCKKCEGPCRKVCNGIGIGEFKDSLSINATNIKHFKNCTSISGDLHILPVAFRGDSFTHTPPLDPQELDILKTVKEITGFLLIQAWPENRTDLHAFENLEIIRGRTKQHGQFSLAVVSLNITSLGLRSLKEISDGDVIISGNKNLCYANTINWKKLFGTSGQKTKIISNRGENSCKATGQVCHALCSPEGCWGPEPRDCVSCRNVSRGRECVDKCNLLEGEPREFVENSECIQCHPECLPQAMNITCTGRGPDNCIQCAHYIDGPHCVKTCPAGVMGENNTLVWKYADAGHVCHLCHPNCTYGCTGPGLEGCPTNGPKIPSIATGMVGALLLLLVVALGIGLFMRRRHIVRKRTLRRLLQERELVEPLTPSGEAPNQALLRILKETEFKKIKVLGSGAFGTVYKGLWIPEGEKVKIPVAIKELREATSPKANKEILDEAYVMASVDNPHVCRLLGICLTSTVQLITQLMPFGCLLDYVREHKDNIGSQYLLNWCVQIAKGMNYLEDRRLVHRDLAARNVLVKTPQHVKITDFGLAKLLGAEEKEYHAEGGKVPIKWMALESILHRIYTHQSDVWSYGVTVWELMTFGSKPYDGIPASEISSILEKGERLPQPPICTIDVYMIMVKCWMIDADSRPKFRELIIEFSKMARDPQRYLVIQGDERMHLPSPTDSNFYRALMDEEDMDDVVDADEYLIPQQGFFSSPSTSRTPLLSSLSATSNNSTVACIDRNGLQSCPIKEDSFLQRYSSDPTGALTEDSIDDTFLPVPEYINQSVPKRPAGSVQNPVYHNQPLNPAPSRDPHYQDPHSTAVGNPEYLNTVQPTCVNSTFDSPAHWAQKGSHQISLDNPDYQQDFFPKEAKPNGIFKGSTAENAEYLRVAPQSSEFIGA
The experiment is described as follows: EGFR binding affinity (LanthaScreen TR-FRET). As to conditions: Kinase Tracer 199, 5 h incubation. The essentials:
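TR-FRET binding (LanthaScreen) with recombinant EGFR; signal measured across a compound concentration range. IC50 obtained by fitting RFU against log[inhibitor] to a variable-slope model.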
In general terms: TR-FRET usually uses a lanthanide donor and a delayed reading to cut background.

The target in experiment [2] is T2, Recombinant BTK^C481S kinase (Homo sapiens, UniProt Q06187, C481S).
T2 construct: purchased SignalChem
T2 sequence (Q06187 whole entry C481S): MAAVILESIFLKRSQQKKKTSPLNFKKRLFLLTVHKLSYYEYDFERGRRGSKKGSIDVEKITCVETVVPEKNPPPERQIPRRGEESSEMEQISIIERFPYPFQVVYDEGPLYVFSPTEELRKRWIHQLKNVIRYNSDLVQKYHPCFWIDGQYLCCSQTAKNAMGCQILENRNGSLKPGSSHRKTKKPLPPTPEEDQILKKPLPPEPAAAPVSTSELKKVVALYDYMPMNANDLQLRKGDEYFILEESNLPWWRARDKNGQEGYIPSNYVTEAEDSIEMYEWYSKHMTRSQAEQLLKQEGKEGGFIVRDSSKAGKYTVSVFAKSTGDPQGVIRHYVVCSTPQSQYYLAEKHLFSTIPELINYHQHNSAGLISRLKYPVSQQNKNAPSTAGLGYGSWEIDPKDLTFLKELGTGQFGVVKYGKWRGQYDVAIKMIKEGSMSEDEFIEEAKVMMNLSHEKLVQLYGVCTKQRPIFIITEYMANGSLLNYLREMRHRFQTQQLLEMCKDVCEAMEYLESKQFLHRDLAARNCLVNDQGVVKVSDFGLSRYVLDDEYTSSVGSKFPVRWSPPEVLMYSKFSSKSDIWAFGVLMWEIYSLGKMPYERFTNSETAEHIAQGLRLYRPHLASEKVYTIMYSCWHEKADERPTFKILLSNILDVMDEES
Description: BTK C481S binding affinity (LanthaScreen TR-FRET). The settings on record: Kinase Tracer 236, 5 h incubation. The essentials:
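BTK C481S tracer-displacement TR-FRET: 5 nM His-tagged kinase, 2 nM Eu anti-His antibody and 30 nM Kinase Tracer 236 incubated with titrated inhibitor for 5 h in Kinase Buffer A. Read at 340 nm excitation, 615/665 nm emission; IC50 from variable-slope log[inhibitor]–response fit.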

For experiment [3], the target named is T3, Recombinant BTK^WT kinase (Homo sapiens, UniProt Q06187).
T3 construct: purchased Invitrogen
T3 sequence (Q06187 whole entry): as the sequence (Q06187 whole entry C481S) above, with S481C counted along it
The experiment is described as follows: BTK WT binding affinity (LanthaScreen TR-FRET). As to conditions: Kinase Tracer 236, 5 h incubation. The method, boiled down: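 Tracer-displacement TR-FRET: 2.5 nM recombinant BTK^WT, 2 nM Eu anti-His antibody and 15 nM Kinase Tracer 236 incubated with varying inhibitor concentrations for 5 h in Kinase Buffer A. Signal read at 340 nm excitation, 615/665 nm emission; IC50 from variable-slope log[inhibitor]–response fit.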

The mark [4] stands for this setting: OCI-Ly10 cells, 72 h compound treatment, Resazurin.

On to `COc1ccccc1C(=O)NCc1ccc(-c2nn(-c3ccc(F)c(F)c3)c(N)c2C(N)=O)cc1` [Example 98, 5-amino-1-(3,4-difluorophenyl)-3-[4-[[(2-methoxybenzoyl)amino]methyl]phenyl]pyrazole-4-carboxamide], for which the IC50 in experiment [1] (setting [4]) is 100 to 1000 nM; on Recombinant EGFR, 1000 to 10000 nM; in experiment [2] it was less than 10 nM; in experiment [3], less than 10 nM.
As for `COc1ccc(F)cc1C(=O)NCc1ccc(-c2nn(CC(F)(F)F)c(N)c2C(N)=O)c(F)c1` [Example 125, 5-amino-3-[2-fluoro-4-[[(5-fluoro-2-methoxy-benzoyl)amino]methyl]phenyl]-1-(2,2,2-trifluoroethyl)pyrazole-4-carboxamide], the IC50 is 100 to 1000 nM in experiment [1] (setting [4]), more than 10000 nM on Recombinant EGFR, less than 10 nM in experiment [2] and 10 to 100 nM in experiment [3].
Regarding `CCOC(=O)C1CCCC(n2nc(-c3ccc(CNC(=O)c4ccccc4OC)cc3)c(C(N)=O)c2N)C1` (single isomer, unassigned) [Example 58, ethyl 3-[5-amino-4-carbamoyl-3-[4-[[(2-methoxybenzoyl)amino]methyl]phenyl]pyrazol-1-yl]cyclohexanecarboxylate], the IC50 was 10 to 100 nM in experiment [1] (setting [4]), 1000 to 10000 nM at Recombinant EGFR, less than 10 nM in experiment [2] and less than 10 nM in experiment [3].
For `COCOCCn1nc(-c2ccc(CNC(=O)c3ccccc3OC)cc2)c(C(N)=O)c1N` [Example 7, 5-amino-3-[4-[[(2-methoxybenzoyl)amino]methyl]phenyl]-1-[2-(methoxymethoxy)ethyl]pyrazole-4-carboxamide], the IC50 in experiment [1] (setting [4]) was 100 to 1000 nM; on Recombinant EGFR, more than 10000 nM; in experiment [2], 10 to 100 nM; in experiment [3], 100 to 1000 nM.
As for `COc1ccccc1C(=O)NCc1ccc(-c2nn([C@H]3CC[C@H](Cl)C3)c(N)c2C(N)=O)cc1` (relative stereo) [Example 37, 5-amino-1-[(1S*,3S*)-3-chlorocyclopentyl]-3-[4-[[(2-methoxybenzoyl)amino]methyl]phenyl]pyrazole-4-carboxamide], the IC50 was 10 to 100 nM in experiment [1] (setting [4]), 100 to 1000 nM at Recombinant EGFR, less than 10 nM in experiment [2] and less than 10 nM in experiment [3].
With `COc1ccccc1C(=O)NCc1ccc(-c2nn(C3CCCC3F)c(N)c2C(N)=O)cc1` (centres unmarked) [Example 103, 5-amino-1-(2-fluorocyclopentyl)-3-[4-[[(2-methoxybenzoyl)amino]methyl]phenyl]pyrazole-4-carboxamide], the IC50 in experiment [1] (setting [4]) is 10 to 100 nM; at Recombinant EGFR it was 1000 to 10000 nM; in experiment [2] it was less than 10 nM; in experiment [3], less than 10 nM.
As to `COc1ccccc1C(=O)NCc1ccc(-c2nn(C3CCC(OCc4ccccc4)CC3)c(N)c2C(N)=O)cc1` (mixture of isomers) [Example 28, 5-Amino-1-(4-benzyloxycyclohexyl)-3-[4-[[(2-methoxybenzoyl)amino]methyl]phenyl]pyrazole-4-carboxamide], the IC50 in experiment [1] (setting [4]) was 10 to 100 nM; on Recombinant EGFR, 100 to 1000 nM; in experiment [2], less than 10 nM; in experiment [3], less than 10 nM.
Take `COc1ccccc1C(=O)NCc1ccc(-c2nn([C@@H]3COC[C@H]3O)c(N)c2C(N)=O)cc1` (relative stereo) [Example 94, 5-amino-1-[trans-4-hydroxytetrahydrofuran-3-yl]-3-[4-[[(2-methoxybenzoyl)amino]methyl]phenyl]pyrazole-4-carboxamide]: the IC50 in experiment [1] (setting [4]) was 1000 to 10000 nM; at Recombinant EGFR, 1000 to 10000 nM; in experiment [2] it was less than 10 nM; in experiment [3] it was 10 to 100 nM.
For the compound `COc1ccccc1C(=O)NCc1ccc(-c2nn(C3CCC(C(=O)O)CC3)c(N)c2C(N)=O)cc1` (mixture of isomers) [Example 74, 4-[5-amino-4-carbamoyl-3-[4-[[(2-methoxybenzoyl)amino]methyl]phenyl]pyrazol-1-yl]cyclohexanecarboxylic acid], the IC50 in experiment [1] (setting [4]) was 1000 to 10000 nM; on Recombinant EGFR, 100 to 1000 nM; in experiment [2], less than 10 nM; in experiment [3] it was less than 10 nM.
As to `COc1ccccc1C(=O)NCc1ccc(-c2nn(C(C)C(F)F)c(N)c2C(N)=O)cc1` (centres unmarked) [Example 126, 5-amino-1-(2,2-difluoro-1-methyl-ethyl)-3-[4-[[(2-methoxybenzoyl)amino]methyl]phenyl]pyrazole-4-carboxamide], the IC50 in experiment [1] (setting [4]) was 100 to 1000 nM; on Recombinant EGFR, 1000 to 10000 nM; in experiment [2], less than 10 nM; in experiment [3], 10 to 100 nM.
The matching figures for `COc1ccccc1C(=O)NCc1ccc(-c2nn(C3CC(O)c4ccccc43)c(N)c2C(N)=O)cc1` (centres unmarked) [Example 63, 5-amino-1-(3-hydroxyindan-1-yl)-3-[4-[[(2-methoxybenzoyl)amino]methyl]phenyl]pyrazole-4-carboxamide]: 10 to 100 nM, 100 to 1000 nM, less than 10 nM and less than 10 nM.
The matching figures for `COc1ccccc1C(=O)NCc1ccc(-c2nn(C3CCCOC3)c(N)c2C(N)=O)cc1F` (centres unmarked) [Example 117, 5-amino-3-[3-fluoro-4-[[(2-methoxybenzoyl)amino]methyl]phenyl]-1-tetrahydropyran-3-yl-pyrazole-4-carboxamide]: 10 to 100 nM, 1000 to 10000 nM, less than 10 nM and less than 10 nM.
As to `COc1ccc(F)cc1C(=O)NCc1ccc(-c2nn(C3CCCOC3)c(N)c2C(N)=O)c(F)c1` (centres unmarked) [Example 107, 5-amino-3-[2-fluoro-4-[[(5-fluoro-2-methoxy-benzoyl)amino]methyl]phenyl]-1-tetrahydropyran-3-yl-pyrazole-4-carboxamide], the IC50 in experiment [1] (setting [4]) was 10 to 100 nM; on Recombinant EGFR, more than 10000 nM; in experiment [2], less than 10 nM; in experiment [3], less than 10 nM.
As for `COc1ccccc1C(=O)NCc1ccc(-c2nn(-c3ccc(F)cc3)c(N)c2C(N)=O)cc1` [Example 43, 5-amino-1-(4-fluorophenyl)-3-[4-[[(2-methoxybenzoyl)amino]methyl]phenyl]pyrazole-4-carboxamide], the IC50 in experiment [1] (setting [4]) is 10 to 100 nM; at Recombinant EGFR, 100 to 1000 nM; in experiment [2], less than 10 nM; in experiment [3], less than 10 nM.
As for `COc1ccccc1C(=O)NCc1ccc(-c2nn(C3CCOC3)c(N)c2C(N)=O)cc1F` (centres unmarked) [Example 109, 5-amino-3-[3-fluoro-4-[[(2-methoxybenzoyl)amino]methyl]phenyl]-1-tetrahydrofuran-3-yl-pyrazole-4-carboxamide], the IC50 in experiment [1] (setting [4]) was 100 to 1000 nM; at Recombinant EGFR, 1000 to 10000 nM; in experiment [2], less than 10 nM; in experiment [3] it was less than 10 nM.
As for `COc1ccccc1C(=O)NCc1ccc(-c2nn(C3CN(C)CC3(F)F)c(N)c2C(N)=O)cc1F` (centres unmarked) [Example 166, 5-amino-1-(4,4-difluoro-1-methyl-pyrrolidin-3-yl)-3-[3-fluoro-4-[[(2-methoxybenzoyl)amino]methyl]phenyl]pyrazole-4-carboxamide], the IC50 was 10 to 100 nM in experiment [1] (setting [4]), 1000 to 10000 nM on Recombinant EGFR, less than 10 nM in experiment [2] and 10 to 100 nM in experiment [3].
In the case of `COc1ccccc1C(=O)NCc1cc(-c2nn(C3CCCC3)c(N)c2C(N)=O)ccc1F` [Example 118, 5-amino-1-cyclopentyl-3-[4-fluoro-3-[[(2-methoxybenzoyl)amino]methyl]phenyl]pyrazole-4-carboxamide], the IC50 in experiment [1] (setting [4]) fell in the range of 1000 to 10000 nM; at Recombinant EGFR, 1000 to 10000 nM; in experiment [2], 10 to 100 nM; in experiment [3], 100 to 1000 nM.
Turning to `COc1ccc(F)cc1C(=O)NCc1cc(F)c(-c2nn(C(C)C(F)(F)F)c(N)c2C(N)=O)cc1F` (centres unmarked) [Example 168, 5-amino-3-[2,5-difluoro-4-[[(5-fluoro-2-methoxy-benzoyl)amino]methyl]phenyl]-1-(2,2,2-trifluoro-1-methyl-ethyl)pyrazole-4-carboxamide], the IC50 in experiment [1] is 10 to 100 nM; on Recombinant EGFR it was 1000 to 10000 nM; in experiment [2], less than 10 nM; in experiment [3] it was 10 to 100 nM.
Regarding `COc1ccc(F)cc1C(=O)NCc1ccc(-c2nn(C(CCO)C(F)F)c(N)c2C(N)=O)cc1` (centres unmarked) [Example 193, 5-Amino-1-[1-(difluoromethyl)-3-hydroxy-propyl]-3-[4-[[(5-fluoro-2-methoxy-benzoyl)amino]methyl]phenyl]pyrazole-4-carboxamide], the IC50 in experiment [1] (setting [4]) is 100 to 1000 nM; on Recombinant EGFR, 1000 to 10000 nM; in experiment [2], less than 10 nM; in experiment [3], 10 to 100 nM.
For `COc1ccccc1C(=O)NCc1ccc(-c2nn(C[C@@H]3CCCNC3)c(N)c2C(N)=O)cc1` [Example 38, 5-amino-3-[4-[[(2-methoxybenzoyl)amino]methyl]phenyl]-1-[[(3R)-3-piperidyl]methyl]pyrazole-4-carboxamide], in that order: more than 10000 nM, more than 10000 nM, 1000 to 10000 nM and more than 10000 nM.
